According to ChEMBL document CHEMBL1629679, “Extended-spectrum cephalosporinases in Pseudomonas aeruginosa” (2009):

Legend:
Pseudomonas aeruginosa [1] = test: Activity at Pseudomonas aeruginosa PDC-2 by spectrophotometer
Pseudomonas aeruginosa [2] = test: Activity at Pseudomonas aeruginosa PDC-3 by spectrophotometer
Pseudomonas aeruginosa [3] = test: Ratio of Kcat to Km for Pseudomonas aeruginosa PDC-2 by spectrophotometer
Pseudomonas aeruginosa [4] = test: Ratio of Kcat to Km for Pseudomonas aeruginosa PDC-3 by spectrophotometer

SMILES | Km (Pseudomonas aeruginosa [1]) | kcat (Pseudomonas aeruginosa [1]) | Km (Pseudomonas aeruginosa [2]) | kcat (Pseudomonas aeruginosa [2]) | kcat/Km (Pseudomonas aeruginosa [3]) | kcat/Km (Pseudomonas aeruginosa [4])
CO/N=C(\C(=O)N[C@@H]1C(=O)N2C(C(=O)O)=C(COC(C)=O)CS[C@H]12)c1csc(N)n1 | 5 µM | 5 s⁻¹ | 8 µM | 0.15 s⁻¹ | 30000 M⁻¹ s⁻¹ | 20000 M⁻¹ s⁻¹
CCN1CCN(C(=O)N[C@@H](C(=O)N[C@@H]2C(=O)N3[C@@H]2SC(C)(C)[C@@H]3C(=O)O)c2ccccc2)C(=O)C1=O | 40 µM | 5.5 s⁻¹ | 40 µM | 5 s⁻¹ | 135000 M⁻¹ s⁻¹ | 125000 M⁻¹ s⁻¹
CC1(C)S[C@@H]2[C@H](NC(=O)Cc3ccccc3)C(=O)N2[C@H]1C(=O)O | 30 µM | 35 s⁻¹ | 30 µM | 35 s⁻¹ | 1.2e+06 M⁻¹ s⁻¹ | 1.2e+06 M⁻¹ s⁻¹
C[C@@H](O)[C@H]1C(=O)N2C(C(=O)O)=C(SCCNC=N)C[C@H]12 | 35 µM | 0.2 s⁻¹ | 20 µM | 0.1 s⁻¹ | 5000 M⁻¹ s⁻¹ | 5000 M⁻¹ s⁻¹
CO/N=C(\C(=O)N[C@@H]1C(=O)N2C(C(=O)[O-])=C(C[N+]3(C)CCCC3)CS[C@H]12)c1csc(N)n1 | 850 µM | 2 s⁻¹ | 1300 µM | 2 s⁻¹ | 2000 M⁻¹ s⁻¹ | 1500 M⁻¹ s⁻¹
CC(C)(O/N=C(\C(=O)N[C@@H]1C(=O)N2C(C(=O)[O-])=C(C[n+]3ccccc3)CS[C@H]12)c1csc(N)n1)C(=O)O | 20 µM | 0.01 s⁻¹ | 35 µM | 0.02 s⁻¹ | 500 M⁻¹ s⁻¹ | 600 M⁻¹ s⁻¹
